Measured values published in patent US6020334A, “Piperazinones, their production and use” (Takeda Chemical Industries, Ltd., priority 1995, dated 2000).

System: ex vivo platelet aggregation
Assay: Ex vivo platelet aggregation inhibitory action (PRP of infused guinea pigs, ADP)
Format: in vivo
Settings: 2 μg/kg/min, continuous i.v. infusion for 90 minutes, ADP 0.5 to 1 μM
Description: (§1) Bleeding Time in Guinea Pigs and Determination of Ex Vivo Platelet Aggregation Inhibitory Action
(§2) Male Hartley guinea pigs (body weight: about 400 g) were employed. These animals were intravenously infused continuously, under anesthesia with pentobarbital, with a physiological saline solution or receptor-antagonistdissolved in the solution at a dose of 10 μl/kg/min.
After 90 minutes of the continuous infusion, blood was collected from abdominal aorta using sodium citrate (whole blood:3.15% citric acid solution=9:1 by volume). […]
Platelet aggregation was measured by using an 8-channel photo-extinction type platelet aggregometer (NBS/HEMA TRACER 801, Niko Bioscience). […] The PRP was set in the aggregometer and incubated for two minutes at 37° C., to which was added 20 μl of ADP (0.5 to 1 μM), and the changes of transmittance were recorded. The difference of PRP and PPP in photo-extinction was assumed 100%, and, with the maximum photo-extinction rates, the maximum aggregation rates (%) were determined. The effects of the drugs were determined by comparing the maximum aggregation rates (%) of animals continuously infused with a physiological saline solution with those of animals continuously infused with receptor antagonist.

In the case of `N=C(N)c1ccc(C(=O)NCCC[C@H]2C(=O)N(CC(=O)O)CCN2C(=O)CNC(=O)c2ccc(C(=N)N)cc2)cc1` [compound 2], the “Inhibitory rate (ex vivo platelet aggregation inhibition)” value is reported as 100%.

Same assay, conditions: 3 μg/kg/min, continuous i.v. infusion for 90 minutes, ADP 0.5 to 1 μM

In the case of `N=C(N)Nc1ccc(C(=O)NCCC[C@H]2C(=O)N(CC(=O)O)CCN2C(=O)CNC(=O)c2ccc(NC(=N)N)cc2)cc1` [compound 15], the “Inhibitory rate (ex vivo platelet aggregation inhibition)” value is reported as 100%.

System: platelet aggregation by ADP
Assay: Platelet aggregation in vitro (inhibition of ADP-induced aggregation of guinea pig PRP, Born's method)
Format: cell-based, guinea pigs
Settings: Cavia porcellus, ADP 0.6-1 μM, 37° C.
Description: Determination of Platelet Aggregation in Vitro
Blood was collected from abdominal aorta of guinea pigs under anesthesia with pentobarbital (20 mg/kg, i.p.) using sodium citrate as an anticoagulant (final concentration: 0.315%). The sodium citrate--supplemented blood was centrifuged at 950 rpm for 10 minutes and 2,000 rpm for 10 minutes respectively at room temperature to obtain platelet rich plasma (PRP) and platelet poor plasma (PPP). The number of platelet was counted an automatic platelet counter (Sysmex E2500, Toaiyo-denshi). PRP was diluted with PPP to adjust the number of platelets to be 500,000/μl. Platelet aggregation was measured as follows, in accordance with Born's method (Nature 194: 927, 1962), using an 8-channel aggregometer (NBS HEMA TRACER VI, Niko Bioscience Inc.): The PRP (250 μl) was incubated at 37° C. for 2 minutes, to which was then added 25 μl of a test drug solution. Two minutes later, 25 μl of an agent (ADP) for causing agglutination. The effect of the test drug was shown by the inhibition rate of the maximum aggregation rate of the test group against that of the control group. ADP was used in the minimum concentration (0.6-1 μM) capable of obtaining maximum aggregation.

Going from `N=C(N)c1ccc(C(=O)NCC(=O)N2CCN(CC(=O)O)C(=O)[C@@H]2CCCN)cc1` [compound 1] to `N=C(N)c1ccc(C(=O)NCC(=O)N2CCN(CC(=O)O)C(=O)[C@@H]2CN)cc1` [compound 17], the IC50 falls from 520 nM to 240 nM (2.2-fold).

First: N=C(N)c1ccc(C(=O)NCCC[C@H]2C(=O)N(CC(=O)O)CCN2C(=O)CNC(=O)c2ccc(C(=N)N)cc2)cc1 [compound 2]
Second: N=C(N)c1ccc(C(=O)NCCC[C@@H]2C(=O)N(CC(=O)O)CCN2C(=O)CNC(=O)c2ccc(C(=N)N)cc2)cc1 [compound 22]
The IC50 of the first is 100-fold lower: 37 nM for the first, 3800 nM for the second. The first is the more potent here.

`COc1ccc(C[C@H](NC(=O)c2ccc(C(=N)N)cc2)C(=O)N2CCN(CC(=O)O)C(=O)[C@@H]2CCCN)cc1` [compound 5] and `COc1ccc(C[C@H](NC(=O)c2ccc(C(=N)N)cc2)C(=O)N2CCN(CC(=O)O)C(=O)[C@@H]2CCCCN)cc1` [compound 7] are within 1.5-fold of each other in IC50: 16 nM for the first, 19 nM for the second.

Going from `COc1ccc(C[C@H](NC(=O)c2ccc(C(=N)N)cc2)C(=O)N2CCN(CC(=O)O)C(=O)[C@@H]2CCCNC(=O)c2ccc(C(=N)N)cc2)cc1` [compound 6] to `COc1ccc(C[C@H](NC(=O)c2ccc(C(=N)N)cc2)C(=O)N2CCN(CC(=O)O)C(=O)[C@@H]2CCCCNC(=O)c2ccc(C(=N)N)cc2)cc1` [compound 8], the IC50 falls from 20 nM to 12 nM (1.7-fold).

`N=C(N)c1ccc(C(=O)NCC(=O)N2CCN(CC(=O)O)C(=O)[C@@H]2CCCNC(=O)CCCCCN)cc1` [compound 9] and `N=C(N)c1ccc(C(=O)NCC(=O)N2CCN(CC(=O)O)C(=O)[C@@H]2CCCNC(=O)CCCCN)cc1` [compound 10] are within 1.5-fold of each other in IC50: 180 nM for the first, 200 nM for the second.

Going from `N=C(N)c1ccc(C(=O)NCC(=O)N2CCN(CC(=O)O)C(=O)[C@@H]2CCCNC(=O)CCCN)cc1` [compound 11] to `N=C(N)NCCCC(=O)NCCC[C@H]1C(=O)N(CC(=O)O)CCN1C(=O)CNC(=O)c1ccc(C(=N)N)cc1` [compound 13], the IC50 falls from 230 nM to 110 nM (2.1-fold). The second is the more potent here.

`COc1ccc(C[C@H](NC(=O)c2ccc(C(=N)N)cc2)C(=O)N2CCN(CC(=O)O)C(=O)[C@@H]2CCCCNC(=N)N)cc1` [compound 12] and `COc1ccc(C[C@H](NC(=O)c2ccc(C(=N)N)cc2)C(=O)N2CCN(CC(=O)O)C(=O)[C@@H]2CCCCNC(=O)CN)cc1` [compound 28] are within 1.5-fold of each other in IC50: 25 nM for the first, 19 nM for the second.

Going from `N=C(N)Nc1ccc(C(=O)NCCC[C@H]2C(=O)N(CC(=O)O)CCN2C(=O)CNC(=O)c2ccc(NC(=N)N)cc2)cc1` [compound 15] to `N=C(N)Nc1ccc(C(=O)NCCC[C@H]2C(=O)N(CC(=O)O)CCN2C(=O)CNC(=O)c2ccc(C(=N)N)cc2)cc1` [compound 23], the IC50 falls from 51 nM to 17 nM (3-fold).

Going from `N=C(N)Nc1ccc(C(=O)NCC[C@H]2C(=O)N(CC(=O)O)CCN2C(=O)CNC(=O)c2ccc(C(=N)N)cc2)cc1` [compound 16] to `N=C(N)c1ccc(C(=O)NCC[C@H]2C(=O)N(CC(=O)O)CCN2C(=O)CNC(=O)c2ccc(C(=N)N)cc2)cc1` [compound 19], the IC50 rises from 44 nM to 180 nM (4.1-fold). The first is the more potent here.

Compared with `N=C(N)c1ccc(C(=O)NCC(=O)N2CCN(CC(=O)O)C(=O)[C@@H]2CNC(=O)c2ccc(C(=N)N)cc2)cc1` [compound 18], `N=C(N)Cc1ccc(C(=O)NC[C@H]2C(=O)N(CC(=O)O)CCN2C(=O)CNC(=O)c2ccc(C(=N)N)cc2)cc1` [compound 25] is 2.4-fold lower in IC50: 130 nM for the first, 54 nM for the second.

Compared with `N=C(N)c1ccc(NC(=O)CC[C@H]2C(=O)N(CC(=O)O)CCN2C(=O)CNC(=O)c2ccc(C(=N)N)cc2)cc1` [compound 24], `N=C(N)NCc1ccc(C(=O)NC[C@H]2C(=O)N(CC(=O)O)CCN2C(=O)CNC(=O)c2ccc(C(=N)N)cc2)cc1` [compound 26] is 3-fold lower in IC50: 250 nM for the first, 84 nM for the second. The second is the more potent here.

Going from `COc1ccc(C[C@H](NC(=O)c2ccc(C(=N)N)cc2)C(=O)N2CCN(CC(=O)O)C(=O)[C@@H]2CCCNC(=O)CCCCCN)cc1` [compound 27] to `N=C(N)c1ccc(C(=O)NCCC[C@H]2C(=O)N(CC(=O)O)CCN2C(=O)CNC(=O)c2ccc(CCN)cc2)cc1` [compound 32], the IC50 rises from 18 nM to 53 nM (2.9-fold). The first is the more potent here.

First: COC(=O)ON=C(N)c1ccc(C(=O)NCCC[C@H]2C(=O)N(CC(=O)O)CCN2C(=O)CNC(=O)c2ccc(C(N)=NOC(=O)OC)cc2)cc1 [compound 30]
Second: COC(=O)ON=C(N)c1ccc(C(=O)NCCC[C@H]2C(=O)N(CC(=O)O)CCN2C(=O)CNC(=O)c2ccc(C(=N)N)cc2)cc1 [compound 31]
The IC50 of the first is 100-fold higher: 19000 nM for the first, 190 nM for the second.

System: not listed separately
Assay: Bleeding time in guinea pigs (continuous intravenous infusion, Simplate R incision)
Format: in vivo
Settings: 2 μg/kg/min, continuous i.v. infusion for 90 minutes
Description: as §1, §2
After the continuous infusion for 90 minutes, the thigh of each animal was applied with a rubber cuff and charged with 40 mmHg, then given an incised sound with Simplate R (Organon Teknika). Thereafter, at 30 sec. each interval, blood was absorbed into a filter paper. The time until no more blood was absorbed into the filter paper was measured. The bleeding time of normal five guinea pigs was about 276 sec.

`N=C(N)c1ccc(C(=O)NCCC[C@H]2C(=O)N(CC(=O)O)CCN2C(=O)CNC(=O)c2ccc(C(=N)N)cc2)cc1` [compound 2] gave a Bleeding time of 308 ± 33 s.

Same assay, conditions: 3 μg/kg/min, continuous i.v. infusion for 90 minutes

Work on `N=C(N)Nc1ccc(C(=O)NCCC[C@H]2C(=O)N(CC(=O)O)CCN2C(=O)CNC(=O)c2ccc(NC(=N)N)cc2)cc1` [compound 15] yielded a Bleeding time of 250 ± 26 s.
